One test has as its target 229E Mpro (Human coronavirus 229E, UniProt P0C6X1). As to the kind of experiment: 229E Mpro enzymatic assay. Format: biochemical, HCoV 229E. Here is the method: (§1) Compounds were assayed using standard methods to assess compound activity and IC50. As an exemplary for assessment of the SARS-COV2 Mpro, the C-His6-tagged Mpro (NC_045512) was cloned, expressed in E. coli and purified. The assay buffer contained 20 mM of Tris-HCl (pH 7.3), 100 mM of NaCl, 1 mM of EDTA, 5 mM of TCEP and 0.1% BSA. The final concentrations of the Mpro protein and substrate were 25 nM and 25 μM, respectively, in the Mpro enzymatic assay. The Km of the Mpro substrate for the protease was 13.5 μM.
(§2) The compounds were added to an assay plate. For 100% inhibition control (HPE, hundred percent effect), 1 μM GC376 was added. For no inhibition control (ZPE, zero percent effect), no compound was added.
(§3) IC50 values of compounds were calculated with the GraphPad Prism software using the nonlinear regression model of log(inhibitor) vs. response—Variable slope (four parameters). The inhibition activity was calculated using the formula below, IC50 values is calculated using the Inhibition % data.
(§4) [formula] • #HEP: Hundred percent effect controls. Containing substrate+enzyme+1 μM GC376. • ZPE: Zero percent effective controls. Containing enzyme+substrate, no compound. • Sample: Compound activity testing wells. Containing compound+enzyme+substrate. • BG: Compound background control wells. Containing compound+substrate, no enzyme.

The target of the next test is SARS-COV2 Mpro (Severe acute respiratory syndrome coronavirus 2, UniProt P0DTD1). As to the kind of experiment: COVID-19 (nCoV-2019, SARS-CoV2) Mpro enzymatic assay. The test is classed as biochemical. The conditions noted are these: read-out: COVID-19 Mpro IC50. Here is the method:
Compounds were assayed using standard methods to assess compound activity and IC50. As an exemplary for assessment of the SARS-COV2 Mpro, the C-His6-tagged Mpro (NC_045512) was cloned, expressed in E. coli and purified. The assay buffer contained 20 mM of Tris-HCl (pH 7.3), 100 mM of NaCl, 1 mM of EDTA, 5 mM of TCEP and 0.1% BSA. The final concentrations of the Mpro protein and substrate were 25 nM and 25 μM, respectively, in the Mpro enzymatic assay.
The compounds were added to an assay plate. For 100% inhibition control (HPE, hundred percent effect), 1 μM GC376 was added.
as §3
[formula] • #HEP: Hundred percent effect controls. […] Containing enzyme+substrate, no compound. • Sample: Compound activity testing wells. Containing compound+enzyme+substrate. • BG: Compound background control wells. Containing compound+substrate, no enzyme.

Another test deals with OC43 Mpro (Human coronavirus OC43, UniProt P0C6X6). As to the kind of experiment: OC43 Mpro enzymatic assay. The test is classed as biochemical, HCoV OC43. Here is the method: as §1, §2, §3, §4

The values below come from patent US20240277795A1, “INHIBITORS OF CYSTEINE PROTEASES AND METHODS OF USE THEREOF” (Pardes Biosciences, Inc., priority 2021, published 2024).

Molecules are shown by their SMILES. Where two headings read alike, the source gives them in different places.

229E Mpro, sequence (P0C6X1 2966-3267): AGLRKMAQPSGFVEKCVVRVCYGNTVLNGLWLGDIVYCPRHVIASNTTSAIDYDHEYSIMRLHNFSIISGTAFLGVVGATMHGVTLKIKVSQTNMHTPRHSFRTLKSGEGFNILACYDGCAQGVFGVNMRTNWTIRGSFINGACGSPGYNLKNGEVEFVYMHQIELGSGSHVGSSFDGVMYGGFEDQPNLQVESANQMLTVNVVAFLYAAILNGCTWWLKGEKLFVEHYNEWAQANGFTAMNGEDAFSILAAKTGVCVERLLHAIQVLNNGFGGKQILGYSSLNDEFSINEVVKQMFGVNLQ
OC43 Mpro, sequence (P0C6X6 3247-3549): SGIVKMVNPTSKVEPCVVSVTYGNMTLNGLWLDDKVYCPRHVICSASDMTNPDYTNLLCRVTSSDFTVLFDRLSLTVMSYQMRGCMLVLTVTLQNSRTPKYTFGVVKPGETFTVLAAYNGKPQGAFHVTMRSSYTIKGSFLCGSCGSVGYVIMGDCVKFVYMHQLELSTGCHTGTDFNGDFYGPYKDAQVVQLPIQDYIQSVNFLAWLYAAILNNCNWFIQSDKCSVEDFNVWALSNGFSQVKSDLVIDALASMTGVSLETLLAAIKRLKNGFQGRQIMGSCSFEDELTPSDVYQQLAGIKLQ

In the case of `CC(C)(C)[C@H](NC(=O)OC1CC(F)(F)C1(F)F)C(=O)N1C[C@H]2[C@@H]([C@H]1C(=O)N[C@H](C#N)C[C@@H]1CC3(CC3)NC1=O)C2(C)C` (single isomer, unassigned) [273 Isomer 1], the concentration for half-maximal inhibition (IC50) at 229E Mpro (Table 3), at SARS-COV2 Mpro (Table 3) and against OC43 Mpro (Table 3) was below 2000 nM in each case.
For `CC(C)(C)[C@H](NC(=O)OC1CC(F)(F)C1(F)F)C(=O)N1C[C@H]2[C@@H]([C@H]1C(=O)N[C@H](C#N)C[C@@H]1CC3(CC3)NC1=O)C2(C)C` (single isomer, unassigned) [273 Isomer 2], the 50% inhibitory concentration (IC50) against 229E Mpro (Table 3), at SARS-COV2 Mpro (Table 3) and against OC43 Mpro (Table 3) was below 2000 nM throughout.
Take `CC(C)(C)[C@H](NC(=O)C1(CF)CC1(F)F)C(=O)N1C[C@H]2[C@@H]([C@H]1C(=O)N[C@H](C#N)C[C@@H]1CC3(CC3)NC1=O)C2(C)C` (single isomer, unassigned) [292 Isomer 1]: the IC50 on 229E Mpro (Table 3), at SARS-COV2 Mpro (Table 3) and against OC43 Mpro (Table 3) was below 2000 nM each time.
On to `CC(C)(C)[C@H](NC(=O)C1(CF)CC1(F)F)C(=O)N1C[C@H]2[C@@H]([C@H]1C(=O)N[C@H](C#N)C[C@@H]1CC3(CC3)NC1=O)C2(C)C` (single isomer, unassigned) [292 Isomer 2], for which the IC50 on 229E Mpro (Table 3), at SARS-COV2 Mpro (Table 3) and on OC43 Mpro (Table 3) was below 2000 nM in each case.
Consider `CC1(C)[C@@H]2[C@@H](C(=O)N[C@H](C#N)C[C@@H]3CC4(CC4)NC3=O)N(C(=O)C(NC(=O)C(F)(F)F)C3CCC3)C[C@@H]21` (single isomer, unassigned) [372 Isomer 1], for which the IC50 on 229E Mpro (Table 3), on SARS-COV2 Mpro (Table 3) and on OC43 Mpro (Table 3) was below 2000 nM in each case.
Turning to `CC1(C)[C@@H]2[C@@H](C(=O)N[C@H](C#N)C[C@@H]3CC4(CC4)NC3=O)N(C(=O)C(NC(=O)C(F)(F)F)C3CCC3)C[C@@H]21` (single isomer, unassigned) [372 Isomer 2], the IC50 against 229E Mpro (Table 3), at SARS-COV2 Mpro (Table 3) and at OC43 Mpro (Table 3) was below 2000 nM each time.
In the case of `COC(C)(C)[C@H](NC(=O)C(F)(F)F)C(=O)N1C[C@H]2[C@@H]([C@H]1C(=O)N[C@H](C#N)C[C@@H]1CC3(CC3)NC1=O)C2(C)C` (single isomer, unassigned) [Compound 284], the concentration for half-maximal inhibition (IC50) against 229E Mpro (Table 5) is 10000 to 30000 nM; at SARS-COV2 Mpro (Table 5), below 2000 nM; at OC43 Mpro (Table 5), below 2000 nM.
Regarding `C[C@@H](OC1CC1)[C@H](NC(=O)C(F)(F)F)C(=O)N1C[C@H]2[C@@H]([C@H]1C(=O)N[C@H](C#N)C[C@@H]1CC(C)(C)NC1=O)C2(C)C` (single isomer, unassigned) [Compound 298], the concentration for half-maximal inhibition (IC50) against 229E Mpro (Table 5), on SARS-COV2 Mpro (Table 5) and on OC43 Mpro (Table 5) was below 2000 nM in each case.
Turning to `C[C@@H](OC1CC1)[C@@H](NC(=O)C(F)(F)F)C(=O)N1C[C@H]2[C@@H]([C@H]1C(=O)N[C@H](C#N)C[C@@H]1CC(C)(C)NC1=O)C2(C)C` (single isomer, unassigned) [Compound 298a], the IC50 against 229E Mpro (Table 5), at SARS-COV2 Mpro (Table 5) and at OC43 Mpro (Table 5) was below 2000 nM in each case.
Consider `C[C@@H](OC1(C)CC1)[C@H](NC(=O)C(F)(F)F)C(=O)N1C[C@H]2[C@@H]([C@H]1C(=O)N[C@H](C#N)C[C@@H]1CC(C)(C)NC1=O)C2(C)C` (single isomer, unassigned) [Compound 299], for which the IC50 against 229E Mpro (Table 3), against 229E Mpro (Table 5), on SARS-COV2 Mpro (Table 3), on OC43 Mpro (Table 3) and at OC43 Mpro (Table 5) was below 2000 nM in each case.
Turning to `C[C@@H](OC1(C)CC1)[C@H](NC(=O)C(F)(F)F)C(=O)N1C[C@H]2[C@@H](C1C(=O)N[C@H](C#N)C[C@@H]1CC(C)(C)NC1=O)C2(C)C` (single isomer, unassigned) [Compound 299a], the IC50 on 229E Mpro (Table 5), on SARS-COV2 Mpro (Table 5) and at OC43 Mpro (Table 5) was below 2000 nM in each case.

A word on the IC50: it is the point on the concentration scale where inhibition reaches its midpoint.
